US8338426B2, “Piperazinyl derivatives useful as modulators of the neuropeptide Y2 receptor” (Janssen Pharmaceutica NV, priority 2007, dated 2012)
Like-named read-outs stand apart in the source and are kept apart here.

How the values were obtained:
NPY Y1 receptor = biological target: T1, NPY Y1 receptor (Homo sapiens, UniProt P25929); assay: CEREP binding panel, NPY Y1
T1 construct: CEREP
T1 sequence (P25929 1-384): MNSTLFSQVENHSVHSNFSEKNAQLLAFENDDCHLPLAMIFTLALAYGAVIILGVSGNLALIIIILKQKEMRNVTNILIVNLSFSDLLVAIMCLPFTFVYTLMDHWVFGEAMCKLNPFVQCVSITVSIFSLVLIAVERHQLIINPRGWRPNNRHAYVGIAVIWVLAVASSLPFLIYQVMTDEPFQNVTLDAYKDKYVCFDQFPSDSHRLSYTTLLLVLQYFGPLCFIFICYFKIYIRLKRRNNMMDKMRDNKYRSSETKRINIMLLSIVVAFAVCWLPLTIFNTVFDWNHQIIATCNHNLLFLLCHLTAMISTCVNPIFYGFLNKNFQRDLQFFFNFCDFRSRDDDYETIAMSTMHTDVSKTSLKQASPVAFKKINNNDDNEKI
Experimental: The selectivity of the compound of formula (A) was further evaluated in a large variety of ion-channels, transporters and receptor-binding assays including the Y1 receptor subtype. These assays were performed by CEREP (Celles L'Evescault, France; www.cere.com<http//www.cerea.com>). Selectivity vs the Y5 receptor subtype was evaluated as described in Bonaventure, P., D. Nepomuceno, C. Mazur, B. Lord, D. A. Rudolph, J. A. Jablonowski, N. I. Carruthers and T. W. Lovenberg, J Pharmacol Exp Ther. 2004, 308, 1130.
The compound of formula (A) was assayed by binding in a panel of 50 receptors, ion channels and transporters assays (CEREP) including adenosine (A1,A2A,A3), adrenergic (α1, α2, β1), angiotensin (AT1), dopamine (D1, D2), bradykinin (B2), cholecystokinin (CCKA), galanin (GAL2), melatonin ML1), muscarinic (M1, M2, M3), neurotensin (NTS), neurokinin (NK2, NK3), NPY (Y1, Y2) opiate (m, k, d), serotonin (5-HT1A, 5-HT1B, 5-HT2A, 5-HT3, 5-HT5A, 5-HT6, 5-HT7), somatostatin, vasopressin (V1a), norepinephrine transporter, dopamine transporter and ion channels (sodium, calcium, potassium and chloride).

MTP = MTP (Homo sapiens, UniProt P55157); assay: MTP assay (triglyceride transfer between vesicles); assay type: biochemical; conditions: read-out: MTP pIC50 (converted)
MTP, sequence (P55157 19-894, species assumed): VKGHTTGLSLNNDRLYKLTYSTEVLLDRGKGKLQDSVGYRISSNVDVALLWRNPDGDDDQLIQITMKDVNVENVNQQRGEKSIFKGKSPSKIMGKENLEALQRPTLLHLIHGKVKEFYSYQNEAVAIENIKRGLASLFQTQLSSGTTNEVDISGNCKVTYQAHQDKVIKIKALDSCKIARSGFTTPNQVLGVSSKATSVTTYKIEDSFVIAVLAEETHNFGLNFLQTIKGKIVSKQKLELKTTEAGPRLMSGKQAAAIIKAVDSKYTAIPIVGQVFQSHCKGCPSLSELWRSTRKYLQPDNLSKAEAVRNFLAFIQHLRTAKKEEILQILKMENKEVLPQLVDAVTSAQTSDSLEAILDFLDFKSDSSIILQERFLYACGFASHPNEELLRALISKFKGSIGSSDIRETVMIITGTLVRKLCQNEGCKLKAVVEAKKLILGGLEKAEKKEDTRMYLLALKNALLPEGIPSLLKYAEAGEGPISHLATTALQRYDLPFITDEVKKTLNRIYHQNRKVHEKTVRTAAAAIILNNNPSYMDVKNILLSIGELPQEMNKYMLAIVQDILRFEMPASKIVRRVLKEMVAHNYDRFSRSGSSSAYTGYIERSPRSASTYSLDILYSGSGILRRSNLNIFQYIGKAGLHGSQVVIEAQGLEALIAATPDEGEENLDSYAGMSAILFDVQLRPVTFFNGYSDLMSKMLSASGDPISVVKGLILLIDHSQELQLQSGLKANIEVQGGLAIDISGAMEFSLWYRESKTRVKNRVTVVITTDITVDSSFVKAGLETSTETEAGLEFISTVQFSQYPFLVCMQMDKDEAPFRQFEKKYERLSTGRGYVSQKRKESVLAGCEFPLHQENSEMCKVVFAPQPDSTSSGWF
MTP, sequence (P07237 18-508 partner, species assumed): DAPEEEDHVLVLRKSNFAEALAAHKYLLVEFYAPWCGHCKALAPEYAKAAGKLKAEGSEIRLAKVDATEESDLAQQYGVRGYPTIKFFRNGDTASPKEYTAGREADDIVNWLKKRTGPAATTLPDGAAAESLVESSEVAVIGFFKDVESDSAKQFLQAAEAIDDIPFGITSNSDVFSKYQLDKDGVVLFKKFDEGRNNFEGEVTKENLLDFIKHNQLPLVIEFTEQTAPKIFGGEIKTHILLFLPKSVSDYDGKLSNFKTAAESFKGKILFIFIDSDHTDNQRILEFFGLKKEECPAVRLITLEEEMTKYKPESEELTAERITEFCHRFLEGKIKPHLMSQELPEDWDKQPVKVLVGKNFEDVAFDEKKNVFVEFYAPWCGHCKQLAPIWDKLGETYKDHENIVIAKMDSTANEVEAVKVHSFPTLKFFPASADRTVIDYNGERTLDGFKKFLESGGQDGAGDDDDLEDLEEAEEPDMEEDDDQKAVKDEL
Experimental: MTP activity was measured using an assay similar to one described by J. R. Wetterau and D. B. Zilversmit in Chemistry and Physics of Lipids (1985) 38, 205-222.
In order to prepare the donor and acceptor vesicles, the appropriate lipids in chloroform were put into a glass test tube and dried under a stream of nitrogen. A buffer containing 15 mM Tris-HCl (pH 7.5), 1 mM ethylenediamine tetra-acetic acid, 40 mM NaCl, 0.02% NaN3 (assay buffer) was added to the dried lipid. The mixture was vortexed briefly and the lipids were then allowed to hydrate for 20 minutes on ice. Vesicles were then prepared by bath sonication (using a Branson 2200 device) at room temperature for at most 15 minutes. Butylated hydroxytoluene was included in all vesicle preparations at a concentration of 0.1%. The lipid transfer assay mixture contained donor vesicles (40 nmole phosphatidylcholine, 7.5 mole % cardiolipin and 0.25 mole % glycerol tri[1-^14C]-oleate), acceptor vesicles (240 nmol phosphatidylcholine) and 5 mg bovine serum albumin in a total volume of 675 μl in a 1.5 ml microcentrifuge tube. Test compound was added dissolved in dimethylsulfoxide (0.13% final concentration). After 5 minutes of pre-incubation at 37° C., the reaction was started by the addition of MTP in 100 μl of a dialysis buffer. The reaction was stopped by the addition of 400 μl […] (DEAE)-52 cellulose (Sephadex) pre-equilibrated in 15 mM Tris-HCl (pH 7.5), 1 mM ethylenediamine tetra-acetic acid and 0.02% NaN3 (1:1 volume/volume). The mixture was agitated for 4 minutes and centrifuged for 2 minutes at maximum speed in an Eppendorf centrifuge (4° C.) to pellet the DEAE-52-bound donor vesicles. An aliquot of the supernatant containing the acceptor liposomes was counted and the [^14C]-counts were used to calculate the percent triglyceride transfer from donor to acceptor vesicles.
Representative compounds of the present invention were measured for binding against the MTP receptor, as described above, with results as listed in Table 2 below.

[1] = Pharmacokinetic study in dogs; assay type: in vivo, male Beagle dog; conditions: dog; for Vd: iv, 1 mg/kg
Experimental: Male Beagle Canines 11-15 kilograms in body weight were used. Three animals received a bolus oral dose of the compound via an oral gavage at a dose of 5 mg/kg. Three animals received a bolus intravenous dose of the compound at a dose of 1 mg/kg in the right cephalic vein. Blood sampling of the cephalic or jugular veins followed dosing over a time course. Blood samples consisted of 4-5 mL samples taken from the vein into heparinized blood collection tubes containing Li Heparin. These blood samples were then centrifuged. The plasma was retained and kept frozen in a −40° C. freezer until processed for analysis. The time course for sampling was as follows: 0.25, 0.5, 1, 2, 4, 8, and 24 hours for oral administration and 0.08, 0.25, 0.5, 1, 2, 4, 8, and 24 hours for intravenous administration. These samples were analyzed by LC-MS/MS. The LC-MS/MS data was analyzed using a non-compartmental model with the software package WinNonlin Version 4.0.1 (Pharsight, Palo Alto, Calif.). All figures plasma level versus time figures were created using GraphPad Prism 4 (San Diego, Calif.).
The compound of formula (A) was formulated in 20% hydroxypropyl-β-cyclodextrine. Oral and intravenous pharmacokinetic parameters for the compound of formula (A) were determined in male Beagles with results as shown in FIG. 3 and Table 3 below.

[2] = male, beagle, plasma, IV 1 mg/kg
[3] = male, beagle, plasma, PO 5 mg/kg

CCN(CC)C(=O)C(c1ccccc1)N1CCN(c2ccc(NC(=O)c3ccccc3-c3cccnc3)cc2F)CC1 (racemic) [Cmpd (A), N-{4-[4-(Diethylcarbamoyl-phenyl-methyl)-piperazin-1-yl]-3-fluoro-phenyl}-2-pyridin-3-yl-benzamide]
inhibition at 1 µM (NPY Y1 receptor): 10% | IC50 (MTP): 794 nM | Lambda z ([1]; IV 1 mg/kg): 1.47 h⁻¹ | Lambda z ([1]; PO 5 mg/kg): 0.71 h⁻¹ | Vd ([1]; male, beagle, plasma, IV 1 mg/kg, read-out: VSS): 0.57 L/kg | Vd ([1]; male, beagle, plasma, IV 1 mg/kg, read-out: Vz): 0.64 L/kg | AUC(0-inf) [1, 2]: 1.89 µM·h | AUC(0-t) [1, 2]: 0.89 µM·h | C0 [1, 2]: 6.24 µM | MRT inf [1, 2]: 36.6 min | clearance [1, 2]: 15.8 mL/min/kg | half-life [1, 2]: 28.2 min | AUC(0-inf) [1, 3]: 2.79 µM·h | AUC(0-t) [1, 3]: 2.73 µM·h | Cmax [1, 3]: 1.55 µM | MRT inf [1, 3]: 103 min | Tmax [1, 3]: 49.8 min | half-life [1, 3]: 59.4 min
